From US11639503B2, “Anti-chymase aptamer and use for same” (RIBOMIC INC., priority 2017, dated 2023)

molecular target: T1, chymase purified from human skin mast cell (native, Calbiochem) (Homo sapiens, UniProt P23946); assay: chymase enzyme activity inhibition, native substrate angiotensin I (His-Leu fluorescence); assay type: biochemical; conditions: Table 3; angiotensin I as substrate; mean of 2 or 3 measurements; >1 = no inhibitory activity up to 1 μM
T1 construct: Here, the native is chymase purified from human skin mast cell; purchased Calbiochem; host or cells: human skin mast cell (tissue-derived)
T1 sequence (P23946 22-247): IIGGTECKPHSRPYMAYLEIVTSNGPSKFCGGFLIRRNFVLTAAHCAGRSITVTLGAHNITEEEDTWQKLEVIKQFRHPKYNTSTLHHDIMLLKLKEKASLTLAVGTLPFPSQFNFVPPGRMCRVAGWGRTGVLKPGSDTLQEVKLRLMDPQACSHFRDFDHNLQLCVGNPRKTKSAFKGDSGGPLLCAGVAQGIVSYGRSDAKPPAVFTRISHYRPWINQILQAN
Description: A second method of evaluation employs a native substrate. A useful native substrate for chymase is angiotensin I. Here, His-Leu, a peptide fragment released upon degradation of angiotensin I, is fluorescently derivatized, and the fluorescence intensity therefrom is quantified.
In the assay, an enzyme reaction is carried out in 50 μL of solution C. First, 0.3-0.75 ng of chymase (recombinant, manufactured by SIGMA; or native, manufactured by Calbiochem) is diluted in solution C to obtain 5 μL chymase solution. Each nucleic acid is prepared in solution C to obtain 25 μL solutions. 5 μL of each chymase dilution and 25 μL of each nucleic acid solution are mixed, and then the mixture is incubated at 37° C. for 5 minutes. Separately, 20 μL of 125 μM angiotensin I (manufactured by Peptide Institute, Inc.) is prepared in solution C and incubated at 37° C. for 5 minutes. The angiotensin I solution is added to the mixture of chymase and nucleic acid, and the enzyme reaction is initiated. After the reaction was allowed to proceed at 37° C. for 90 minutes, 25 μL of ice-cooled 30% trichloroacetic acid solution is added to terminate the reaction. The entire mixture is centrifuged at 4° C., 14000 rpm for 10 minutes, and 30 μL of the resulting supernatant is used for the subsequent reaction for fluorescent derivatization.
After 30 μL of the supernatant is added to a 96-well plate (Black, manufactured by Costar), 15 μL of 2% o-phthalaldehyde (manufactured by SIGMA) solution in methanol and 170 μL of 0.3M NaOH solution are mixed in each well, and the plate is allowed to stand at room temperature for 10 minutes. Subsequently, 25 μL of 3M HCl solution is added to terminate the reaction. The plate is set to the microplate reader SpectraMax190 (manufactured by Molecular Devices Corporation), and the fluorescence intensity is determined at an excitation wavelength of 355 nm and a fluorescence wavelength of 460 nm.
For control, samples are treated and analyzed in the same manner in two cases: use of SEQ ID NO: 58 (negative control) and use of chymostatin, a known chymotrypsin-like serine protease inhibitor (positive control). In both cases, fluorescence intensity obtained at 0 minute reaction time serves as a blank determination. Taking the fluorescence intensity detected with the addition of an equal volume of solution C, in place of each nucleic acid, in the chymase enzyme reaction as 100%, the inhibitory rate for each test substance is calculated, and the inhibitor concentration required to cause a 50% inhibition of the enzyme activity (IC50) is determined.
Whether the nucleic acids shown by SEQ ID NO: 9 and 10 inhibit the enzyme activity of chymase was determined by the following method. Angiotensin I is converted by chymase to angiotensin II, during which a peptide fragment His-Leu is released. Since the peptide His-Leu is fluorescently derivatized by o-phthalaldehyde, its fluorescence intensity can be quantitatively measured.
The total volume of solution for an enzyme reaction in the assay was set to 50 μL, and the reaction was performed in solution C buffer. At first, native (manufactured by Calbiochem) was diluted with solution C to give 5 μL thereof. Here, the native is chymase purified from human skin mast cell. The nucleic acid was serially diluted with solution C at a concentration of 0.0027-2 μM to give 25 μL thereof. The chymase solution (5 μL) and the nucleic acid solution (25 μL) were mixed, and the mixture was incubated at 37° C. for 5 min. On the other hand, […] angiotensin I (manufactured by PEPTIDE INSTITUTE, INC.) was prepared in solution C to give 20 μL thereof, which was incubated at 37° C. for 5 min. The angiotensin I solution was added to a mixture of chymase and nucleic acid to start an enzyme reaction. The final chymase concentration of the reaction solution was 0.5 nM, and the final substrate concentration was 50 μM. […]

Substance | IC50 [nM]
16 (GGCAGAUGAUCGGACAUAACAUUGUUGGGGUGUCAA; 2'-fluoro at CU, RNA at AG, backbone not given here) [compound 16] | 2
18 (UGAUCGGACAUAACAUUGUUGGGGUGUCAA; 2'-fluoro at CU, RNA at AG, backbone not given here) [compound 18] | 2.1
17 (GAUGAUCGGACAUAACAUUGUUGGGGUGUCAA; 2'-fluoro at CU, RNA at AG, backbone not given here) [compound 17] | 1.4
14 (GGCAGAUGAUCGGACAUAACAUUGUUGGGGUGUCAAGCC; 2'-fluoro at CU, RNA at AG, backbone not given here) [compound 14] | 6.8
11 (GGGUCAGAUGAUCGGACAUAACAUUGUUGGGGUGUCAAGGCCC; 2'-fluoro at CU, RNA at AG, backbone not given here) [compound 11] | 54.7
15 (GAUGAUCGGACAUAACAUUGUUGGGGUGUCAAGCC; 2'-fluoro at CU, RNA at AG, backbone not given here) [compound 15] | 1.4
19 (AUCGGACAUAACAUUGUUGGGGUGUCAA; 2'-fluoro at CU, RNA at AG, backbone not given here) [compound 19] | 14.4
13 (GGACAUAACAUUGUUGGGGUGUCAAGG; 2'-fluoro at CU, RNA at AG, backbone not given here) [compound 13] | > 1000

same assay, conditions: Table 4; angiotensin I as substrate; mean of 2 or 3 measurements

Substance | IC50 [nM]
17(19) (GAUGAUCGGACAUAACAUUGUUGGGGUGUCAA; aptamer; 2'-O-methyl, idT end and other modifications, positions not given here) | 0.19
17(3) (GAUGAUCGGACAUAACAUUGUUGGGGUGUCAA; aptamer; 2'-O-methyl, idT end and other modifications, positions not given here) | 5.66
17(21) (GAUGAUCGGACAUAACAUUGUUGGGGUGUCAA; aptamer; 2'-O-methyl, idT end and other modifications, positions not given here) | 0.19
17(2) (GAUGAUCGGACAUAACAUUGUUGGGGUGUCAA; aptamer; 2'-O-methyl, idT end and other modifications, positions not given here) | 0.21
17(23) (GAUGAUCGGACAUAACAUUGUUGGGGUGUCAA; aptamer; 2'-O-methyl, idT end and other modifications, positions not given here) | 0.16
17(25) (GAUGAUCGGACAUAACAUUGUUGGGGUGUCAA; 2'-O-methyl, idT end and other modifications, positions not given here) | 0.2
17 (GAUGAUCGGACAUAACAUUGUUGGGGUGUCAA; 2'-fluoro at CU, RNA at AG, backbone not given here) [compound 17] | 1.4
17(1) (GAUGAUCGGACAUAACAUUGUUGGGGUGUCAA; 2'-O-methyl, idT end and other modifications, positions not given here) | 44.4
17(7) (GAUGAUCGGACAUAACAUUGUUGGGGUGUCAA; aptamer; 2'-O-methyl, idT end and other modifications, positions not given here) | 0.17
17(16) (GAUGAUCGGACAUAACAUUGUUGGGGUGUCAA; aptamer; 2'-O-methyl, idT end and other modifications, positions not given here) | 0.18
17(10) (GAUGAUCGGACAUAACAUUGUUGGGGUGUCAA; aptamer; 2'-O-methyl, idT end and other modifications, positions not given here) | 0.13
17(15) (GAUGAUCGGACAUAACAUUGUUGGGGUGUCAA; aptamer; 2'-O-methyl, idT end and other modifications, positions not given here) | 0.13
17(6) (GAUGAUCGGACAUAACAUUGUUGGGGUGUCAA; aptamer; 2'-O-methyl, idT end and other modifications, positions not given here) | 0.14
17(18) (GAUGAUCGGACAUAACAUUGUUGGGGUGUCAA; aptamer; 2'-O-methyl, idT end and other modifications, positions not given here) | 0.15
17(9) (GAUGAUCGGACAUAACAUUGUUGGGGUGUCAA; aptamer; 2'-O-methyl, idT end and other modifications, positions not given here) | 0.16
17(5) (GAUGAUCGGACAUAACAUUGUUGGGGUGUCAA; aptamer; 2'-O-methyl, idT end and other modifications, positions not given here) | 0.17
17(22) (GAUGAUCGGACAUAACAUUGUUGGGGUGUCAA; aptamer; 2'-O-methyl, idT end and other modifications, positions not given here) | 0.17
17(8) (GAUGAUCGGACAUAACAUUGUUGGGGUGUCAA; aptamer; 2'-O-methyl, idT end and other modifications, positions not given here) | 0.13

same assay, conditions: Table 6; angiotensin I as substrate; mean of 2 or 3 measurements

Substance | IC50 [nM]
33(14) (AUGAUCGGACAUAACUAAUUAGGGGUGUCAA; aptamer; modified variant with 2'-O-methyl and end modifications, pattern not given here) | 0.075
33 (AUGAUCGGACAUAACUAAUUAGGGGUGUCAA; aptamer; listed as RNA, chemistry not fully specified) [compound 33] | 0.21
33(8) (AUGAUCGGACAUAACUAAUUAGGGGUGUCAA; aptamer; modified variant with 2'-O-methyl and end modifications, pattern not given here) | 0.061
33(15) (AUGAUCGGACAUAACUAAUUAGGGGUGUCAA; aptamer; modified variant with 2'-O-methyl and end modifications, pattern not given here) | 0.072
33(9) (AUGAUCGGACAUAACUAAUUAGGGGUGUCAA; listed as RNA, chemistry not fully specified) | 1.35
17 (GAUGAUCGGACAUAACAUUGUUGGGGUGUCAA; 2'-fluoro at CU, RNA at AG, backbone not given here) [compound 17] | 1.4
33(2) (AUGAUCGGACAUAACUAAUUAGGGGUGUCAA; aptamer; modified variant with 2'-O-methyl and end modifications, pattern not given here) | 0.078
33(5) (AUGAUCGGACAUAACUAAUUAGGGGUGUCAA; aptamer; modified variant with 2'-O-methyl and end modifications, pattern not given here) | 0.076
33(4) (AUGAUCGGACAUAACUAAUUAGGGGUGUCAA; aptamer; modified variant with 2'-O-methyl and end modifications, pattern not given here) | 0.072
33(16) (AUGAUCGGACAUAACUAAUUAGGGGUGUCAA; aptamer; modified variant with 2'-O-methyl and end modifications, pattern not given here) | 0.063
33(3) (AUGAUCGGACAUAACUAAUUAGGGGUGUCAA; aptamer; modified variant with 2'-O-methyl and end modifications, pattern not given here) | 0.071
